Source: a melting point compilation (Tetko et al.; mined from patent text by program, amines drawn as free bases though some values may be those of a salt)

SMILES	melting point [°C]
O=C(O)COc1ccc(S(=O)(=O)C(Br)(Br)Br)cc1	238 to 246
CC(C)c1cccc2c1OC(C(F)(F)F)C(C(=O)O)=C2 (centres undefined)	210 to 212
CC(C)COc1c(-c2ccc(S(N)(=O)=O)cc2)cnn(-c2ccc(F)c(F)c2)c1=O	169 to 171
O=C1c2c(n3c4c(cccc24)OCC3c2ccccc2)CCC1(Cl)Cl (centres undefined)	104
O=C(Nc1ccccc1)C1CSc2sccc2C1=O (centres undefined)	155 to 158
COc1cc(C(=O)N2CCC3(CC2)Cc2ccccc2O3)cc(OC)c1OC	148 to 150
CC(=O)c1cccnc1CN1C(=O)C(NC(=O)Nc2cccc(C)c2)N=C(c2ccccc2F)c2ccccc21 (racemic)	218 to 222
O=C(Nc1ccc2cc(CN3CCCCCC3)cnc2c1)c1ccc(-c2ccc(Cl)cc2)cc1	204
C#Cc1ccc(N)nc1	143
CS(=O)(=O)Nc1cc(C(c2cc(F)ccc2F)S(=O)(=O)c2ccc(F)cc2)c(Cl)cn1 (centres undefined)	178 to 179
O=C(Nc1ccc(-c2cnc(-c3cccc(NC(=O)c4ccccn4)c3)[nH]2)cc1)c1ccccn1	205 to 208
Cc1ccc2nccc(Cl)c2c1	47 to 51
CN(C)c1nc2sc3c(NCc4cccnc4)ncnc3c2c2c1CCC2(C)C	237 to 238
O=C1CNC(=O)N1Cc1ccccc1	139 to 140
CCCCc1nc2c(N)nc3ccccc3c2n1CCCNC(=S)Nc1ccccc1	143 to 144
Cc1cc(=O)n2c3c(cc(C(O)(C(F)(F)F)C(F)(F)F)cc13)CC2	337 to 338
CCCCN1CC=C(c2c[nH]c3ccc(NS(C)(=O)=O)cc23)CC1	202 to 204
O=C(CN1C(=O)C2(COc3cc(Cl)ccc32)c2ccccc21)Nc1ccccc1F (centres undefined)	70 to 75
CC(C)c1cc(S(N)(=O)=O)c(C(C)C)cc1C(=O)O	225 to 231
c1nc2c(cc1NC1=NCCN1)COCC2	201 to 202
O=S(=O)(c1ccc(O)cc1)N1CCCC1	122 to 125

SMILES	melting point [°C]
C[C@H](CO)Nc1nc(SCc2ccccc2F)nc2[nH]c(=O)cnc12	203 to 205
O=C(O)C=C(c1cccc(Cl)c1)c1cccc(Cl)c1	114 to 115
CCOC(=O)c1ncn2c1CN=C(c1ccccc1F)c1cc(Br)ccc1-2	200 to 202
CCOC(=O)c1c(N2CCN(C(=O)c3ccco3)CC2)c2cc(F)cnc2n(CC(=O)c2ccccc2)c1=O	134
COc1cc2c(=O)c(C(N)=O)c[nH]c2cc1F	> 300
OC1(c2nccnc2Cl)CN2CCC1CC2 (centres undefined)	215 to 216
NCCCP(=O)(O)c1ccccc1	298 to 300
CN(C)c1ncc(NC(=O)c2cc3cc(C(F)(F)F)cnc3n2Cc2cccc(F)c2)cn1	236 to 238
CC[C@H](Cc1sccc1Cl)Nc1ccnc(O)c1[N+](=O)[O-]	150 to 152
CC(C)c1cc(Oc2ccc(Cl)cc2)nc(C(C)C)c1N=C=NC(C)(C)C	46 to 55
CCCCCCCCCCC1C(=O)NC(=O)NC1=O	190
CC(C)(C)N1CC=C(c2c[nH]c(-c3ccc(F)cc3)c2-c2ccncc2)CC1	242 to 244
CC(C)N(C(=O)CN1C(=O)C(NC(=O)Nc2ccccc2)C(=O)N(c2ccccc2)c2ccccc21)c1ccccc1 (centres undefined)	230 to 235
CC(=O)Nc1ccc(C2=NN(C(=O)C3CC3)C(C)Cc3cc4c(cc32)OCO4)cc1 (centres undefined)	242 to 243
CC(C)n1nc(-c2sc(NC(=O)c3ccc(CN4CCCCC4)cc3)nc2-c2ccccc2)ccc1=O	136 to 138
COc1cc(C=O)ccc1OCC#CI	121 to 127
Cc1sc(-c2cn[nH]c2)nc1O	124 to 125
CC(=O)OC1CSC(O)C(OC(C)=O)C1OC(C)=O (centres undefined)	115
Clc1ccc2c(c1)C(c1ccccc1)=NCc1c[nH]cc1-2	203 to 206
NS(=O)(=O)c1ccc(-n2cc(-c3ccccc3)cc2-c2ccc(F)cc2)cc1	192 to 194
O=c1[nH]c2ccc(S(=O)CCN3CCC(Cc4cccc(F)c4F)CC3)cc2o1 (centres undefined)	188 to 190

Other lines, results leading:

melting point [°C]	SMILES
110 to 112	O=C(Nc1ccc(C2=CCN(C(=O)Nc3ccc(OCCO)cc3C(F)(F)F)CC2)cc1)Nc1ccccc1F
114 to 115	CN(C(=O)OC(C)(C)C)c1cc(Oc2ccc(Cc3ccccc3)cc2)ccc1N
218	CCCn1c(=O)n2cnnc2c2c1ncn2C
278 to 279	Cc1sc(N2CCOCC2)nc1/C=C/c1cn(-c2ccccc2)nc1O
41 to 42	CCCCCCCCCCCCCCc1ccc(O)c(C(=O)CCCCC)c1
193 to 196	COC(=O)c1cccc(Oc2cccc(-c3nn(C)c(=Nc4ccc(Cl)c(Cl)c4)s3)c2)c1
40 to 43	CC(C)(C)c1ccc([N+]([O-])=S)cc1
210 to 212	Fc1ccc(Oc2cc3cnc(Cl)nc3cn2)c(F)c1
> 245	CCOc1ccc(NC=C(C#N)C(=O)Nc2cc(OC)c(Cl)cc2Cl)cc1I
69 to 71	COC(=O)CC(C#N)c1ccc(OC)c(OC2CCCC2)c1 (centres undefined)
123 to 125	Cc1cc(-c2nnc(C(C)(C)C)o2)ccc1[N+](=O)[O-]
143 to 145	CC(C)(C)c1ccc(CCC(CC2CCCCC2)OC(=O)OCC(=O)O)cc1NC(=O)CC1c2ccccc2Oc2ccccc21 (centres undefined)
203 to 205	CC(C)n1nc(-c2cnc(N)nc2-c2ccccc2Br)ccc1=O
110 to 114	Cc1ccn(-c2ccc(C(=O)C3c4ccccc4NC=C4N=NNN43)c(Cl)c2)n1 (centres undefined)
94	N#Cc1cc([N+](=O)[O-])ccc1OCC(F)(F)F
157 to 158	CC(C)c1ccc(C2C(=O)Oc3ccc(Br)cc32)cc1 (centres undefined)
183 to 184	CN(C(=O)CNc1nc(-c2ccccc2)ncc1N)c1ccccc1
161 to 163	CCOC(=O)C1=C(C)NC(=S)N(S(C)(=O)=O)C1c1cccc([N+](=O)[O-])c1 (centres undefined)
62.5 to 64	C=CCONC(O)(CC)C1C(=O)C=C(CC)OC1=O (centres undefined)

melting point [°C]	SMILES
175 to 176	CCOC(=O)c1c(-c2cccc(C)c2)csc1N1C(=O)c2ccccc2C1=O
182 to 183	CN(C)c1ccc(C(=CC=CC2N(C)c3ccccc3C2(C)C)c2ccc(N(C)C)cc2)cc1 (centres undefined)
79 to 82	CC(C)(C)c1ccc(OC2CCOC2)c(N)c1 (centres undefined)
207 to 209	O=C(O)/C=C\C(=O)NCC(=O)N1c2ccccc2N(Cc2ccccc2)C(=O)[C@H]2CCC[C@H]21 (relative stereo)
83 to 85	CCOC(=O)c1ccc(OC(F)F)cc1SC
195 to 199	COC1=NC(=O)N(C)S(=O)(=O)N1
178 to 179	Cc1c(CNCC(C)(C)C)[nH]c2c(C)c(NC(=O)c3ccc(OC[C@@H]4CCCO4)cc3)ccc12
153 to 154	CCOc1nn(Cc2ccc(OCc3cn4c(Cl)cccc4n3)cc2)cc1CCC(=O)O
> 260	NNC(=O)c1ncn2c1[C@@H]1CCCN1C(=O)c1sccc1-2
198 to 199	CC1(C(=O)c2c[nH]c3ncc(Br)nc23)CCCCC1
88 to 89	BrCCC=C1c2ccccc2C=Cc2ccccc21
164 to 170	NS(=O)(=O)c1ccc(-n2nc(CCCNC(=O)NC3CCCCCC3)cc2-c2ccccc2)cc1
134 to 138	Cc1ccc(S(=O)(=O)c2ccc3[nH]c(C)c(CCNC(=O)OC(C)(C)C)c3c2)cc1
158 to 159	Cc1c(-c2ccco2)c(N2CC[C@H](N(C)C)C2)c2oc(C3CC3)nc2c1C#N
98 to 99	COc1cc(Nc2c(C#N)cnc3cc(/C=C/CCCCCCCCCN4CCOCC4)c(OC)cc23)c(Cl)cc1Cl
232 to 234	CN(C)C=NC(=O)c1ccc(C(=O)N2Cc3cccn3Cc3ccccc32)cc1
187 to 189	Cn1nc(S(C)=O)c(=O)c2ccccc21 (centres undefined)
95 to 106	CC(C)OC(=O)Cn1c(=O)n(C)c(=O)n(-c2cc(N=c3sc(=O)n4n3CCCCC4)c(F)cc2Cl)c1=O
79	COc1cc(C(F)(F)F)cc(Cl)c1-n1nc(C#N)c(SC(C)(F)F)c1N

melting point [°C]	SMILES
92 to 95	COc1ccc(C2CCN(C(=O)N3CCC(Nc4ccc(CCNC[C@H](O)COc5ccc(O)cc5)cc4)CC3)CC2)cc1OC1CCCC1
236 to 238	CCCc1c(OCc2ccc(/C=C3\SC(=S)NC3=O)cc2)ccc(C(C)=O)c1O
276 to 285	Cc1cc2nc(C(=O)O)c(=O)[nH]c2cc1C
172 to 173	CC(C)Cn1c(CNC(=O)OC(C)(C)C)c(-c2ccccc2)c2cc(/C=C/C(=O)O)ccc2c1=O
78 to 82	O=C(O)CCCc1cc2cc(Cl)ccc2n1S(=O)(=O)c1ccc(N2CCOCC2)nc1
137 to 138	COCOc1c(NC(=S)NCc2cccnc2)cc(OC)cc1C(C)(C)C
231 to 233	CC1(C)NC(=O)c2ccc(O)cc21
150 to 152	CC1(C)C(=O)Oc2cc([N+](=O)[O-])c3ccc(Cn4cncn4)cc3c21
177 to 178	NS(=O)(=O)c1cccc(C(=O)Nc2ccc(-n3nc(C(F)(F)F)cc3C(F)(F)F)cc2)c1
198 to 201	Clc1ccc2nc(CN3CCN(c4ccccc4)CC3)[nH]c2c1
109 to 110	CCOC(=O)C1=C(C)Nc2snc(CCCOCc3ccccc3)c2C1c1cccc([N+](=O)[O-])c1 (centres undefined)
196 to 197	Cc1ccc(C(=O)Nc2c[nH]nc2C(=O)NCCC(F)(F)F)cn1
113	N#CCc1cccc2c(-c3ccccc3Cl)nccc12
325 to 327	COn1cc(C(=O)O)c(=O)c2cc3cc(F)c(F)cc3nc21
117 to 119	O=C1N(Cc2ccc(N3CCOCC3)nc2)c2ccccc2C12COc1cc3c(cc12)OCCO3 (centres undefined)
202 to 205	O=C(O)CCCCN(Cc1ccccc1)Cc1ccccc1
170 to 171	CC(C)c1cccc(C(C)C)c1NC(=O)CN1CCN(CCSc2nc3ccccc3s2)CC1
98 to 100	COC(=O)c1cccc(Sc2ccc([N+](=O)[O-])cc2)c1
163 to 165	N#CNc1ccc2c3c(cccc13)CC2
